Assay results reported in patent publication US20200163984A1, “USE OF ISOVALERYL SPIRAMYCIN I, II AND/OR III IN MANUFACTURING MEDICAMENT FOR TREATING AND/OR PREVENTING TUMOR, AND MEDICAMENT” (SHENYANG FUYANG PHARMACEUTICAL TECHNOLOGY CO., LTD., priority 2017, published 2020).
Each block holds one compound with its values, some of them ahead of it.

Experiments:
[1] = system: transplanted tumor of human lymphoma cell U937; test: U937 transplanted tumor in nude mice
Method: U937 cells in a logarithmic growth phase were taken and subjected to a trypan blue exclusion experiment showing that the cell viability was more than 95%, then the cells were subjected to trypsinization, centrifugation, and supernatant removal. Then cell concentration was adjusted to 1×10^7/ml with matrigel, then each nude mouse was inoculated subcutaneously with 0.2 ml of cells at its right armpit and recorded as the first day of inoculation. When the tumor grows to be greater than or equal to 100 mm^3, the mice were randomly divided into 11 groups with 6 mice in each group: a model group, a cyclophosphamide group, isovaleryl spiramycin I groups with doses of 25, 50 and 100 mg/kg, isovaleryl spiramycin II groups with doses of 25, 50 and 100 mg/kg, and isovaleryl spiramycin III groups with doses of 25, 50 and 100 mg/kg. Each group was continuously administered intragastrically for 30 days with a dose of 20 ml/kg. The mice were sacrificed the next day after drug withdrawal and the indicators were tested. The long diameter and short diameter of the tumor, and the body weight of each mouse were recorded every 3 days from drug administration to nude mouse sacrifice.
The body weight of the nude mice and the long diameter (a) and short diameter (b) of the transplanted tumor were measured every 3 days, and the tumor volume (v), relative tumor volume (RTV) and relative tumor proliferation rate (T/C) are calculated respectively according to the following formulas, wherein V=a×b^2/2; RTV=V/V0 (V0 is the tumor volume before administration, V is the tumor volume before sacrifice), and T/C (%)=treatment group RTV/model control group RTV×100%.
Each mouse was weighed and sacrificed. After the tumor was completely stripped off from the body of the mouse, the non-tumor tissues such as blood stains and fat were removed to weigh the tumor and calculate the tumor growth inhibition rate. The average tumor weight of each group of mice is used as an indicator of efficacy. Tumor growth inhibition rate (%)=(1−the average tumor weight of the treatment group/the average tumor weight of the model group)×100%.

[2] = Thymus index and spleen index of Lewis lung cancer tumor-bearing mice; settings: for Spleen Index (%) / Thymus Index (%): n = 6
Method: In the Lewis lung cancer model, the mice inoculated with the tumor were randomly divided into groups with 10 mice in each group the next day of inoculation. The groups included: a model control group, a positive drug cyclophosphamide control group (CTX, 30 mg/kg), isovaleryl spiramycin I groups with doses of 13, 26 and 52 mg/kg; isovaleryl spiramycin II groups with doses of 13, 26 and 52 mg/kg; isovaleryl spiramycin III groups with doses of 13, 26 and 52 mg/kg. Each group was continuously administered intragastrically for 15 days with a dose of 20 ml/kg.

[3] = U937, high dose (100 mg/kg in method) i.g. 30 days
[4] = U937, low dose (25 mg/kg in method) i.g. 30 days
[5] = U937, medium dose (50 mg/kg in method) i.g. 30 days

SMILES: O=P1(N(CCCl)CCCl)NCCCO1 (stereo not shown) [Cyclophosphamide, cyclophosphamide, reference compound]
- Inhibition Rate (%) ([1]; U937 nude mice, 30 mg/kg): 65.11%
- Relative Tumor Proliferation Rate (T/C) ([1]; U937 nude mice, 30 mg/kg): 35.44%
- Relative Tumor Volume (RTV) ([1]; U937 nude mice, 30 mg/kg): 6.04 ± 1.26
- Tumor Weight ([1]; U937 nude mice, 30 mg/kg): 0.68 ± 0.12 g
- Body Weight (g) (d1) ([1]; U937 nude mice, 30 mg/kg, d1): 21.00 ± 0.72 g
- Tumor Volume (mm3) (d 1) ([1]; U937 nude mice, 30 mg/kg, d1): 125.00 ± 32.61 mm3
- Body Weight (g) (d30) ([1]; U937 nude mice, 30 mg/kg, d30): 19.72 ± 0.95 g
- Tumor Volume (mm3) (d30) ([1]; U937 nude mice, 30 mg/kg, d30): 722.72 ± 55.32 mm3
- spleen index compared with the control group ([2]; Lewis tumor-bearing mice, cyclophosphamide, P<0.01): significantly lower
- Spleen Index (%) ([2]; dose 26 mg/kg): 0.48 ± 0.09 %
- Thymus Index (%) ([2]; dose 26 mg/kg): 0.06 ± 0.02 %

- mouse weight compared with the model group ([1]; mouse, in vivo): no significant changes
SMILES: CO[C@@H]1[C@@H](O[C@@H]2O[C@H](C)[C@@H](O[C@H]3C[C@@](C)(O)[C@@H](OC(=O)CC(C)C)[C@H](C)O3)[C@H](N(C)C)[C@H]2O)[C@@H](CC=O)C[C@@H](C)[C@@H](O[C@H]2CC[C@H](N(C)C)[C@@H](C)O2)/C=C/C=C/C[C@@H](C)OC(=O)C[C@H]1O [Isovaleryl spiramycin I, isovaleryl spiramycin I]
- Relative Tumor Proliferation Rate (T/C) [1, 3]: 35.25%
- tumor growth inhibition rate [1, 3]: 65.03%
- Relative Tumor Proliferation Rate (T/C) [1, 4]: 68.65%
- tumor growth inhibition rate [1, 4]: 41.73%
- tumor volume and relative tumor volume compared with the model group ([1]; U937, low, medium and high doses, P<0.05): significantly lower
- Relative Tumor Proliferation Rate (T/C) [1, 5]: 39.74%
- tumor growth inhibition rate [1, 5]: 50.73%
- Inhibition Rate (%) ([1]; U937 nude mice, 12.5 mg/kg): 41.73%
- Relative Tumor Proliferation Rate (T/C) ([1]; U937 nude mice, 12.5 mg/kg): 68.65%
- Relative Tumor Volume (RTV) ([1]; U937 nude mice, 12.5 mg/kg): 11.70 ± 3.59
- Tumor Weight ([1]; U937 nude mice, 12.5 mg/kg): 1.13 ± 0.60 g
- Tumor Volume (mm3) (d 1) ([1]; U937 nude mice, 12.5 mg/kg, d1): 108.43 ± 6.49 mm3
- Tumor Volume (mm3) (d30) ([1]; U937 nude mice, 12.5 mg/kg, d30): 1270.43 ± 435.28 mm3
- Inhibition Rate (%) ([1]; U937 nude mice, 25 mg/kg): 50.73%
- Relative Tumor Proliferation Rate (T/C) ([1]; U937 nude mice, 25 mg/kg): 39.74%
- Relative Tumor Volume (RTV) ([1]; U937 nude mice, 25 mg/kg): 6.77 ± 0.57
- Tumor Weight ([1]; U937 nude mice, 25 mg/kg): 0.95 ± 0.42 g
- Tumor Volume (mm3) (d 1) ([1]; U937 nude mice, 25 mg/kg, d1): 108.61 ± 9.06 mm3
- Tumor Volume (mm3) (d30) ([1]; U937 nude mice, 25 mg/kg, d30): 734.22 ± 76.87 mm3
- Inhibition Rate (%) ([1]; U937 nude mice, 50 mg/kg): 65.03%
- Relative Tumor Proliferation Rate (T/C) ([1]; U937 nude mice, 50 mg/kg): 35.25%
- Relative Tumor Volume (RTV) ([1]; U937 nude mice, 50 mg/kg): 6.01 ± 2.26
- Tumor Weight ([1]; U937 nude mice, 50 mg/kg): 0.68 ± 0.09 g
- Tumor Volume (mm3) (d 1) ([1]; U937 nude mice, 50 mg/kg, d1): 109.98 ± 5.88 mm3
- Tumor Volume (mm3) (d30) ([1]; U937 nude mice, 50 mg/kg, d30): 660.17 ± 37.49 mm3
- Body Weight (g) (d1) ([1]; mouse, in vivo, 12.5 mg/kg): 21.19 ± 0.66 g
- Body Weight (g) (d30) ([1]; mouse, in vivo, 12.5 mg/kg): 21.16 ± 0.74 g
- Body Weight (g) (d1) ([1]; mouse, in vivo, 25 mg/kg): 21.28 ± 0.52 g
- Body Weight (g) (d30) ([1]; mouse, in vivo, 25 mg/kg): 21.01 ± 0.68 g
- Body Weight (g) (d1) ([1]; mouse, in vivo, 50 mg/kg): 20.64 ± 0.39 g
- Body Weight (g) (d30) ([1]; mouse, in vivo, 50 mg/kg): 20.94 ± 0.77 g
- Spleen Index (%) ([2]; dose 13 mg/kg): 0.72 ± 0.21%
- Thymus Index (%) ([2]; dose 13 mg/kg): 0.12 ± 0.03%
- Spleen Index (%) ([2]; dose 26 mg/kg): 0.62 ± 0.15%
- Thymus Index (%) ([2]; dose 26 mg/kg): 0.13 ± 0.04%
- Spleen Index (%) ([2]; dose 52 mg/kg): 0.77 ± 0.14 %
- Thymus Index (%) ([2]; dose 52 mg/kg): 0.12 ± 0.06%
